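Cultured in 96-well plates, cells were exposed to test compound for 48 hours across five concentrations. At the GI50, growth is halved.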 Activity calls are given as the source filed them. Cut-off read from the data, not from the text of the source: active = GI50 up to about 1.1 µM and inactive = higher.
Assays:
Test in all cases: inhibition of tumour cell growth, NCI panel, 48 h
[1] = system: DLD-1
[2] = system: DU-145
[3] = system: HCC 2998
[4] = system: HCT-116
[5] = system: HL-60
[6] = system: Hs-578T
[7] = system: K562
[8] = system: MCF7
[9] = system: MDA-MB-231
[10] = system: MOLT-4
[11] = system: NCI-H460
[12] = system: OVCAR-5
[13] = system: OVCAR-8
[14] = system: PC-3
[15] = system: SK-OV-3
[16] = system: SN12C
[17] = system: SR
[18] = system: T47D
[19] = system: U-251
[20] = system: UO-31

Measured: GI50

NS(=O)(=O)OCCCCCCCOS(N)(=O)=O
inactive: [1] 495 µM | [2] 124 µM | [3] 300 µM | [4] 309 µM | [5] 33 µM | [6] 527 µM | [7] 347 µM | [8] 101 µM | [9] 445 µM | [10] 24.2 µM | [11] 23 µM | [12] 408 µM | [13] 221 µM | [14] 249 µM | [15] 471 µM | [16] 133 µM | [17] 31.6 µM | [18] 246 µM | [19] 198 µM | [20] 265 µM

CC(C)(C)C1CCC(CI)(N=[N+]=[N-])CC1 (centres undefined)
inactive: [1] > 100 µM | [3] > 100 µM | [4] > 100 µM | [5] 42.8 µM | [7] > 100 µM | [10] > 100 µM | [11] > 100 µM | [12] > 100 µM | [13] > 100 µM | [15] > 100 µM | [16] > 100 µM | [17] 33.7 µM | [19] > 100 µM | [20] > 100 µM

Source: ChEMBL document CHEMBL1201862, “PubChem BioAssay data set” (2004)
